Assays:
[1] = tested on: TNFα-FL/Gaussia Luciferase; assay: Dox Induced TNFα-FL-Gluc Assay; assay type: cell-based; conditions: for IC50: 24 hr Dox induction, 293FRT/TO cells, read-out: 24 hr Dox Inducible TNFaFLGluc 293FRT/TO: Mean IC50; for 24 hr Dox Inducible TNFaFLGluc 293FRT/TO: TNF/PD1: ratio of TNFaFLGluc IC50 to PD1ssGluc IC50
Summary of the method: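 Compound was added with doxycycline to cells plated a day earlier, incubating at 37° C under 5% CO2. The reporter line is 293 T-REx expressing a TNFα (1-233)–Gaussia luciferase fusion under tetracycline-regulated control.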

[2] = tested on: multiple myeloma cell line NCI-H929; assay: H929 Cell Viability Assay; assay type: cell-based, human; conditions: Homo sapiens, NCI-H929, 48 h, NCI-H929 cells, Celltiter-Glo
Summary of the method: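 Luminescent CellTiter-Glo read-out of viability after a 48 h exposure (37° C, 5% CO2) of NCI-H929 myeloma cells to compound dilutions in RPMI 1640 plus 10% FBS. Data for structures drawn without stereochemistry refer to stereoisomer mixtures.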

[3] = tested on: multiple myeloma cell line U266B1; assay: U266 Cell Viability Assay; assay type: cell-based, human; conditions: Homo sapiens, U-266, 48 h, U266B1 cells, Celltiter-Glo
Summary of the method: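 CellTiter-Glo luminescence was read after a 48 h compound exposure (37 °C, 5% CO2) of human U266B1 myeloma cells grown in 10% FBS-supplemented RPMI 1640. Data for structures shown without defined stereochemistry refer to stereoisomer mixtures.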

[4] = Liver Microsome Stability Assay (monkey); conditions: monkey liver microsomes, with NADPH, 1.0 uM compound
Method: (§1) Stability of a compound was assessed in the presence of liver microsomes from various sources—mouse, rat, monkey and human liver microsomes. 1.0 uM compound, 0.4% DMSO in 0.1 M Potassium Phosphate with 1.0 mg/mL liver microsomes, were incubated at 37° C. with or without 1 mM NADPH. The samples were quenched at 0, and 30 minutes.

[5] = tested on: PD1-ss+10aa/Gaussia Luciferase; assay: Dox-Induced PD1-ss-Gluc Assay; assay type: cell-based; conditions: 24 hr Dox induction; 293FRT/TO cells; read-out: 24 hr Dox Inducible PD1ssGluc 293FRT/TO: Mean IC50
Summary of the method: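 Compounds were added in DMSO/media with doxycycline and incubated at 37 °C, 5% CO2, on 293 T-REx cells plated one day earlier. These cells stably express, under tetracycline-regulated control, a Gaussia luciferase fused to the PD1 signal peptide plus 10 residues. Structures drawn without stereochemistry were tested as stereoisomer mixtures.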

[6] = Liver Microsome Stability Assay (human); conditions: human liver microsomes, with NADPH, 1.0 uM compound
Method: as §1

[7] = Liver Microsome Stability Assay (rat); conditions: rat liver microsomes, with NADPH, 1.0 uM compound
Method: as §1

[8] = tested on: IL-2-FL/Gaussia Luciferase; assay: Dox Induced IL2-FL-Gluc Assay; assay type: cell-based; conditions: for IC50: 24 hr Dox induction, 293FRT/TO cells, read-out: 24 hr Dox Inducible IL2FLGluc 293FRT/TO: Mean IC50; for 24 hr Dox Inducible IL2FLGluc 293FRT/TO: IL2/PD1: ratio of IL2FLGluc IC50 to PD1ssGluc IC50
Summary of the method: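 Compounds in DMSO/medium with doxycycline were applied to a 293 T-REx stable line expressing an IL-2 (aa 1-153)–Gaussia luciferase fusion under tetracycline-regulated control, cells seeded one day earlier; incubation at 37 °C, 5% CO2. Structures drawn without stereochemistry were tested as stereoisomer mixtures.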

[9] = tested on: HER3-ss+4aa/Gaussia Luciferase; assay: Dox-Induced Her3-ss-Gluc Assay; assay type: cell-based; conditions: 24 hr Dox induction; 293FRT/TO cells; read-out: 24 hr Dox Inducible Her3(ss + 4)Gluc 293FRT/TO: Mean IC50
Summary of the method: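 Compounds were diluted in DMSO/media containing doxycycline. They were added to Flp-In 293 T-REx cells plated the previous day, then incubated at 37 °C under 5% CO2. These cells stably express, under T-REx control, Gaussia luciferase fused to the HER3 signal sequence plus 4 amino acids.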

[10] = Liver Microsome Stability Assay (mouse); conditions: mouse liver microsomes, with NADPH, 1.0 uM compound
Method: as §1

O=C(Nc1nc([C@H]2CCCN2c2ccc(OC3CN(C(=O)CO)C3)cc2)cs1)c1cccn1Cc1ccnc(F)c1 [Compound A110, (R)-1-((2-fluoropyridin-4-yl)methyl)-N-(4-(1-(4-((1-(2-hydroxyacetyl)azetidin-3-yl)oxy)phenyl)pyrrolidin-2-yl)thiazol-2-yl)-1H-pyrrole-2-carboxamide]
IC50 [1]: 310 nM | 24 hr Dox Inducible TNFaFLGluc 293FRT/TO: TNF/PD1 [1]: 13.4 | EC50 [2]: 884 nM | EC50 [3]: > 25000 nM | Liver Microsome Stability (Multiple Species): Monkey - % Remaining after 30 min w/NADPH [4]: 4.58% | IC50 [5]: 23.2 nM | Liver Microsome Stability (Multiple Species): Human - % Remaining after 30 min w/NADPH [6]: 10.5% | Liver Microsome Stability (Multiple Species): Rat - % Remaining after 30 min w/NADPH [7]: 55.7% | IC50 [8]: 79.8 nM | 24 hr Dox Inducible IL2FLGluc 293FRT/TO: IL2/PD1 [8]: 3.4 | IC50 [9]: 36.4 nM | Liver Microsome Stability (Multiple Species): Mouse - % Remaining after 30 min w/NADPH [10]: 31.2%

C[C@@H](O)c1ccc(N2CCC[C@@H]2c2csc(NC(=O)c3cccn3Cc3ccnc(F)c3)n2)cc1 [Compound A111, 1-((2-fluoropyridin-4-yl)methyl)-N-(4-((R)-1-(4-((R)-1-hydroxyethyl)phenyl)pyrrolidin-2-yl)thiazol-2-yl)-1H-pyrrole-2-carboxamide]
IC50 [1]: 94.5 nM | 24 hr Dox Inducible TNFaFLGluc 293FRT/TO: TNF/PD1 [1]: 11.9 | EC50 [2]: 422 nM | EC50 [3]: > 25000 nM | Liver Microsome Stability (Multiple Species): Monkey - % Remaining after 30 min w/NADPH [4]: 3.48% | IC50 [5]: 7.92 nM | Liver Microsome Stability (Multiple Species): Human - % Remaining after 30 min w/NADPH [6]: 2.78% | Liver Microsome Stability (Multiple Species): Rat - % Remaining after 30 min w/NADPH [7]: 7.97% | IC50 [8]: 16.3 nM | 24 hr Dox Inducible IL2FLGluc 293FRT/TO: IL2/PD1 [8]: 2.1 | IC50 [9]: 13.6 nM | Liver Microsome Stability (Multiple Species): Mouse - % Remaining after 30 min w/NADPH [10]: 12.7%

C[C@H](O)c1ccc(N2CCC[C@@H]2c2csc(NC(=O)c3cccn3Cc3ccnc(F)c3)n2)cc1 [Compound A112, 1-((2-fluoropyridin-4-yl)methyl)-N-(4-((R)-1-(4-((S)-1-hydroxyethyl)phenyl)pyrrolidin-2-yl)thiazol-2-yl)-1H-pyrrole-2-carboxamide]
IC50 [1]: 40 nM | 24 hr Dox Inducible TNFaFLGluc 293FRT/TO: TNF/PD1 [1]: 10.5 | EC50 [2]: 408 nM | EC50 [3]: > 25000 nM | Liver Microsome Stability (Multiple Species): Monkey - % Remaining after 30 min w/NADPH [4]: 0.35% | IC50 [5]: 3.81 nM | Liver Microsome Stability (Multiple Species): Human - % Remaining after 30 min w/NADPH [6]: 3.41% | Liver Microsome Stability (Multiple Species): Rat - % Remaining after 30 min w/NADPH [7]: 6.03% | IC50 [8]: 8.64 nM | 24 hr Dox Inducible IL2FLGluc 293FRT/TO: IL2/PD1 [8]: 2.3 | IC50 [9]: 5.98 nM | Liver Microsome Stability (Multiple Species): Mouse - % Remaining after 30 min w/NADPH [10]: 5.81%

O=C(Nc1nc([C@H]2CCCN2c2ccc(CO)cc2)cs1)c1cccn1Cc1ccnc(F)c1 [Compound A113, (R)-1-((2-fluoropyridin-4-yl)methyl)-N-(4-(1-(4-(hydroxymethyl)phenyl)pyrrolidin-2-yl)thiazol-2-yl)-1H-pyrrole-2-carboxamide]
IC50 [1]: 136 nM | 24 hr Dox Inducible TNFaFLGluc 293FRT/TO: TNF/PD1 [1]: 13.9 | EC50 [2]: 615 nM | EC50 [3]: > 25000 nM | Liver Microsome Stability (Multiple Species): Monkey - % Remaining after 30 min w/NADPH [4]: 1.3% | IC50 [5]: 9.82 nM | Liver Microsome Stability (Multiple Species): Human - % Remaining after 30 min w/NADPH [6]: 0.61% | Liver Microsome Stability (Multiple Species): Rat - % Remaining after 30 min w/NADPH [7]: 0.64% | IC50 [8]: 17.9 nM | 24 hr Dox Inducible IL2FLGluc 293FRT/TO: IL2/PD1 [8]: 1.8 | IC50 [9]: 22.6 nM | Liver Microsome Stability (Multiple Species): Mouse - % Remaining after 30 min w/NADPH [10]: 4.74%

O=C(Nc1nc([C@H]2CCCN2c2ccc(C3(O)CCC3)cc2)cs1)c1cccn1Cc1ccnc(F)c1 [Compound A114, (R)-1-((2-fluoropyridin-4-yl)methyl)-N-(4-(1-(4-(1-hydroxycyclobutyl)phenyl)pyrrolidin-2-yl)thiazol-2-yl)-1H-pyrrole-2-carboxamide]
IC50 [1]: 551 nM | 24 hr Dox Inducible TNFaFLGluc 293FRT/TO: TNF/PD1 [1]: 15.2 | EC50 [2]: 1020 nM | EC50 [3]: > 25000 nM | Liver Microsome Stability (Multiple Species): Monkey - % Remaining after 30 min w/NADPH [4]: 0.43% | IC50 [5]: 36.1 nM | Liver Microsome Stability (Multiple Species): Human - % Remaining after 30 min w/NADPH [6]: 3.96% | Liver Microsome Stability (Multiple Species): Rat - % Remaining after 30 min w/NADPH [7]: 8.6% | IC50 [8]: 54.9 nM | 24 hr Dox Inducible IL2FLGluc 293FRT/TO: IL2/PD1 [8]: 1.5 | IC50 [9]: 87.8 nM | Liver Microsome Stability (Multiple Species): Mouse - % Remaining after 30 min w/NADPH [10]: 13%

Cc1cc(C(=O)Nc2nc([C@H]3CCCN3c3ccccc3)cs2)n(Cc2ccncc2)c1 [Compound A115, (R)-4-methyl-N-(4-(1-phenylpyrrolidin-2-yl)thiazol-2-yl)-1-(pyridin-4-ylmethyl)-1H-pyrrole-2-carboxamide]
IC50 [1]: 587 nM | 24 hr Dox Inducible TNFaFLGluc 293FRT/TO: TNF/PD1 [1]: 14.1 | EC50 [2]: 2000 nM | EC50 [3]: 7270 nM | Liver Microsome Stability (Multiple Species): Monkey - % Remaining after 30 min w/NADPH [4]: 3.2% | IC50 [5]: 41.5 nM | Liver Microsome Stability (Multiple Species): Human - % Remaining after 30 min w/NADPH [6]: 14.6% | Liver Microsome Stability (Multiple Species): Rat - % Remaining after 30 min w/NADPH [7]: 9.02% | IC50 [8]: 122 nM | 24 hr Dox Inducible IL2FLGluc 293FRT/TO: IL2/PD1 [8]: 2.9 | IC50 [9]: 89.3 nM | Liver Microsome Stability (Multiple Species): Mouse - % Remaining after 30 min w/NADPH [10]: 3.39%

O=C(Nc1nc([C@H]2CCCN2c2ccc(Br)cc2)cs1)c1cccn1Cc1ccnc(F)c1 [Compound A116]
IC50 [1]: 39.5 nM | 24 hr Dox Inducible TNFaFLGluc 293FRT/TO: TNF/PD1 [1]: 19.7 | EC50 [2]: 160 nM | EC50 [3]: > 25000 nM | Liver Microsome Stability (Multiple Species): Monkey - % Remaining after 30 min w/NADPH [4]: 18.9% | IC50 [5]: 2 nM | Liver Microsome Stability (Multiple Species): Human - % Remaining after 30 min w/NADPH [6]: 45.3% | Liver Microsome Stability (Multiple Species): Rat - % Remaining after 30 min w/NADPH [7]: 37.7% | IC50 [8]: 4.93 nM | 24 hr Dox Inducible IL2FLGluc 293FRT/TO: IL2/PD1 [8]: 2.5 | IC50 [9]: 4.14 nM | Liver Microsome Stability (Multiple Species): Mouse - % Remaining after 30 min w/NADPH [10]: 60.7%

CC(=O)N(C)CCOc1ccc(N2CCC[C@@H]2c2csc(NC(=O)c3cccn3Cc3ccnc(F)c3)n2)cc1 [Compound A117, (R)-1-((2-fluoropyridin-4-yl)methyl)-N-(4-(1-(4-(2-(N-methylacetamido)ethoxy)phenyl)pyrrolidin-2-yl)thiazol-2-yl)-1H-pyrrole-2-carboxamide]
IC50 [1]: 301 nM | 24 hr Dox Inducible TNFaFLGluc 293FRT/TO: TNF/PD1 [1]: 10.7 | EC50 [2]: 938 nM | EC50 [3]: > 25000 nM | Liver Microsome Stability (Multiple Species): Monkey - % Remaining after 30 min w/NADPH [4]: 0.09% | IC50 [5]: 28.2 nM | Liver Microsome Stability (Multiple Species): Human - % Remaining after 30 min w/NADPH [6]: 2.64% | Liver Microsome Stability (Multiple Species): Rat - % Remaining after 30 min w/NADPH [7]: 8.86% | IC50 [8]: 51 nM | 24 hr Dox Inducible IL2FLGluc 293FRT/TO: IL2/PD1 [8]: 1.8 | IC50 [9]: 33.4 nM | Liver Microsome Stability (Multiple Species): Mouse - % Remaining after 30 min w/NADPH [10]: 0.81%

CC(=O)NCCOc1ccc(N2CCC[C@@H]2c2csc(NC(=O)c3cccn3Cc3ccnc(F)c3)n2)cc1 [Compound A121, (R)-N-(4-(1-(4-(2-acetamidoethoxy)phenyl)pyrrolidin-2-yl)thiazol-2-yl)-1-((2-fluoropyridin-4-yl)methyl)-1H-pyrrole-2-carboxamide]
IC50 [1]: 180 nM | 24 hr Dox Inducible TNFaFLGluc 293FRT/TO: TNF/PD1 [1]: 16.5 | EC50 [2]: 447 nM | EC50 [3]: > 25000 nM | Liver Microsome Stability (Multiple Species): Monkey - % Remaining after 30 min w/NADPH [4]: 1.57% | IC50 [5]: 10.9 nM | Liver Microsome Stability (Multiple Species): Human - % Remaining after 30 min w/NADPH [6]: 8.26% | Liver Microsome Stability (Multiple Species): Rat - % Remaining after 30 min w/NADPH [7]: 9.82% | IC50 [8]: 20.7 nM | 24 hr Dox Inducible IL2FLGluc 293FRT/TO: IL2/PD1 [8]: 1.9 | IC50 [9]: 17.5 nM | Liver Microsome Stability (Multiple Species): Mouse - % Remaining after 30 min w/NADPH [10]: 7.09%

From patent publication US20230286973A1, “PROTEIN SECRETION INHIBITORS” (KEZAR LIFE SCIENCES, priority 2020, published 2023)
